Holding throughout (experiment): agar dilution MIC assay of anaerobic bacteria
One assay has as its system C. difficile. The assay is classed as cell-based, Clostridium difficile. The conditions noted are these: Clostridioides difficile, read-out: MIC. On the procedure:
(§1) Each compound was assayed against a panel of anaerobic bacteria in culture, consisting of Gram-positive organisms, such as Lactobacilli, Bifidobacteria, Clostridium spp., and Gram-negative bacteria, such as […] fragilis spp., according to guidelines of the Clinical and Laboratory Standards Institute (CLSI document M11-A7, CLSI, Wayne, Pa., 2007). […] One tenth mL of diluted bacteria containing 500-1000 colony-forming units (CFU) was plated and spread, and the plates incubated at 37° C. for 24-48 hours. MIC (minimum inhibitory concentration) is equivalent to the lowest concentration in μg/ml at which growth, i.e., colony formation, is not observed. […] Bacteria were assayed using a reference agar dilution method. Drug dilutions and drug-supplemented agar plates were prepared manually. The test organisms were maintained frozen at −80° C. The isolates were sub-cultured on Supplemented Brucella Agar (SBA) plates in a Bactron II anaerobic chamber and incubated for 48 hours at 35-36° C. in the Bactron II anaerobe chamber. Following inoculation, the drug-supplemented plates were incubated at 35° C. for 48 hours in the anaerobic environment (5% hydrogen, 5% carbon dioxide, 90% nitrogen) of the Bactron II. The MIC in μg/ml was read per Clinical and Laboratory Standards Institute guidelines.

The subject of a further assay is L. casei. Format: cell-based, Lactobacillus casei. The conditions noted are these: Lacticaseibacillus casei, Micromyx Number 1722, Table 1. The protocol:
as §1

The next assay concerns Ba. fragilis. The assay is classed as cell-based. The conditions noted are these: Bacteroides fragilis, Micromyx Number 0123 (ATCC strain). On the procedure:
as §1

For another assay, the system named is L. acidophilus. The assay is classed as cell-based. The conditions noted are these: Lactobacillus acidophilus, Micromyx Number 0681, Table 1. The protocol: as §1
For another assay, the system named is E. lentum. The assay is classed as cell-based, Eubacterium lentum. The conditions noted are these: Eggerthella lenta; E. lentum, Micromyx Number 1274, Table 1; read-out: MIC. On the procedure: as §1
The test system of the next assay is Bi. brevi. The assay is classed as cell-based, Bifidobacterium brevi. Particulars: Bifidobacterium; Bi. brevi, Micromyx Number 3967, Table 1. On the procedure:
as §1

The next assay concerns Bi. longum. The assay is classed as cell-based, Bifidobacterium longum. The conditions noted are these: Bifidobacterium longum; Bi. longum, Micromyx Number 3968, Table 1; read-out: MIC. The protocol:
as §1

Structures are written as SMILES. Converted amounts (≈) assume the structure as drawn. Read-outs that look alike come from different tables or passages of the source. A value given as a limit tells only on which side of the number the result lay.

The term MIC denotes the least concentration at which growth counts as inhibited.

With `CCc1cc(Nc2cc(=O)n(CCCCO)c(=O)[nH]2)ccc1C` [Compound 179E], the MIC in the assay with C. difficile (C. difficile, Micromyx Number 1209, Table 1) is 16 µg/mL (≈ 50.4 µM); in the assay with C. difficile (C. difficile, Micromyx Number 3579, Table 1), 16 µg/mL (≈ 50.4 µM); in the assay on C. difficile (C. difficile, Micromyx Number 3580, Table 1), 4 µg/mL (≈ 12.6 µM); with C. difficile (C. difficile, Micromyx Number 3581, Table 1), 8 µg/mL (≈ 25.2 µM); in the assay on C. difficile (C. difficile, Micromyx Number 3582, Table 1) it was 16 µg/mL (≈ 50.4 µM); with C. difficile (C. difficile, Micromyx Number 3584, Table 1), 4 µg/mL (≈ 12.6 µM). Also, the MIC in the assay on C. difficile (C. difficile, Micromyx Number 3585, Table 1) turned out to be 16 µg/mL (≈ 50.4 µM); with C. difficile (C. difficile, Micromyx Number 3586, Table 1), 4 µg/mL (≈ 12.6 µM); in the assay with C. difficile (C. difficile, Micromyx Number 3587, Table 1), 8 µg/mL (≈ 25.2 µM); with C. difficile (C. difficile, Micromyx Number 3588, Table 1), 1 µg/mL (≈ 3.15 µM); with C. difficile (C. difficile, Micromyx Number 3589, Table 1) it was 16 µg/mL (≈ 50.4 µM); with C. difficile (C. difficile, Micromyx Number 3590, Table 1) it was 8 µg/mL (≈ 25.2 µM). Moreover, the MIC was determined as 8 µg/mL (≈ 25.2 µM) in the assay with C. difficile (C. difficile, Micromyx Number 3591, Table 1); 16 µg/mL (≈ 50.4 µM) in the assay with C. difficile (C. difficile, Micromyx Number 3593, Table 1); 4 µg/mL (≈ 12.6 µM) with C. difficile (C. difficile, Micromyx Number 3594, Table 1); 4 µg/mL (≈ 12.6 µM) in the assay with C. difficile (C. difficile, Micromyx Number 3595, Table 1); 4 µg/mL (≈ 12.6 µM) in the assay with C. difficile (C. difficile, Micromyx Number 4381 (ATCC strain), Table 1); 32 µg/mL (≈ 101 µM) in the assay with L. casei. In addition, the MIC against Ba. fragilis (Ba. fragilis, Gram negative, Table 1) is above 32 µg/mL; with L. acidophilus, 32 µg/mL (≈ 101 µM); in the assay on E. lentum, above 32 µg/mL; against Bi. brevi, above 32 µg/mL; with Bi. longum it was above 32 µg/mL.
Take `O=c1[nH]c(NCc2ccc(Cl)c(Cl)c2)nc2ncn(CCCCN3CCOCC3)c12` [Compound 258D, 7-[4-(N-morpholinyl)butyl]-2-(3,4-dichlorobenzylamino)-6-oxopurine]: the MIC came to 8 µg/mL (≈ 17.7 µM) in the assay with C. difficile (C. diff. Strain no. 18285, Table 4); 4 µg/mL (≈ 8.86 µM) in the assay with C. difficile (C. diff. Strain no. 19265, Table 4); 8 µg/mL (≈ 17.7 µM) with C. difficile (C. diff. Strain no. 19273, Table 4); 4 µg/mL (≈ 8.86 µM) in the assay on C. difficile (C. diff. Strain no. 19281, Table 4); 4 µg/mL (≈ 8.86 µM) in the assay with C. difficile (C. diff. Strain no. 19291, Table 4); 16 µg/mL (≈ 35.4 µM) in the assay with C. difficile (C. diff. Strain no. 19369, Table 4). Besides, the MIC in the assay with C. difficile (C. diff. Strain no. 19382, Table 4) is 4 µg/mL (≈ 8.86 µM); in the assay with C. difficile (C. diff. Strain no. 19540, Table 4) it was 4 µg/mL (≈ 8.86 µM); with C. difficile (C. diff. Strain no. 19580, Table 4), 2 µg/mL (≈ 4.43 µM); with C. difficile (C. diff. Strain no. 19680, Table 4), 4 µg/mL (≈ 8.86 µM); in the assay on C. difficile (C. diff. Strain no. 19681, Table 4), 4 µg/mL (≈ 8.86 µM); in the assay on C. difficile (C. diff. Strain no. 19683, Table 4), 8 µg/mL (≈ 17.7 µM). Besides, the MIC in the assay with C. difficile (C. diff. Strain no. 19687, Table 4) was 8 µg/mL (≈ 17.7 µM); in the assay with C. difficile (C. diff. Strain no. 20066, Table 4), 8 µg/mL (≈ 17.7 µM); in the assay on C. difficile (C. diff. Strain no. 20152, Table 4), 16 µg/mL (≈ 35.4 µM); in the assay on C. difficile (C. diff. Strain no. 20307, Table 4) it was 4 µg/mL (≈ 8.86 µM); in the assay with C. difficile (C. diff. Strain no. 20494, Table 4), 4 µg/mL (≈ 8.86 µM); in the assay on C. difficile (C. diff. Strain no. 20680, Table 4) it was 4 µg/mL (≈ 8.86 µM). The MIC worked out at 4 µg/mL (≈ 8.86 µM) in the assay on C. difficile (C. diff. Strain no. 20934, Table 4) and 2 µg/mL (≈ 4.43 µM) in the assay with C. difficile (C. diff. Strain no. 21099, Table 4).
With `CCOCCn1cnc2nc(NCc3ccc(Cl)c(Cl)c3)[nH]c(=O)c21` [Compound 325E], the MIC was 2 µg/mL (≈ 5.23 µM) with C. difficile (C. diff., Micromyx Number 3579, Table 2); 2 µg/mL (≈ 5.23 µM) in the assay on C. difficile (C. diff., Micromyx Number 3580, Table 2); 1 µg/mL (≈ 2.62 µM) with C. difficile (C. diff., Micromyx Number 3581, Table 2); 2 µg/mL (≈ 5.23 µM) in the assay with C. difficile (C. diff., Micromyx Number 3582 (ATCC strain), Table 2); above 32 µg/mL in the assay on Ba. fragilis (B. fragilis, Table 2).

Values taken from US8796292B2, “Selective antibacterials for clostridium difficile infections” (GLSynthesis Inc., priority 2009, dated 2014).
